# Assay results reported in patent US11590134B2, “Aminopyrimidine amide autophagy inhibitors and methods of use thereof” (Deciphera Pharmaceuticals, LLC, priority 2019, dated 2023).
# How the values were obtained:
# [1] = target: T1, ULK2 kinase (Homo sapiens, UniProt Q8IYT8); experiment: Biochemical assay for ULK2 (coupled pyruvate kinase/lactate dehydrogenase assay); conditions: 9.7 nM ULK2 (residues 1-306), myelin basic protein substrate, 1 mM ATP; read-out: ULK2.2
# T1 construct: purchased Eurofins 14-772
# Experimental: (§1) Activity of ULK2 kinase was determined spectroscopically using a coupled pyruvate kinase/lactate dehydrogenase assay that continuously monitors the ATP hydrolysis-dependent oxidation of NADH (e.g., Schindler et al. Science (2000) 289: 1938-1942). Assays were conducted in 384-well plates (100 uL final volume) using 9.7 nM ULK2 (Eurofins CAT #14-772), 0.25 mg/mL myelin basic protein, 1.5 units pyruvate kinase, 2.1 units lactate dehydrogenase, 1 mM phosphoenol pyruvate, 0.28 mM NADH and 1 mM ATP in assay buffer (100 mM Tris, pH 7.5, 15 mM MgCl2, 0.5 mM DTT, 0.1% octyl-glucoside, 0.002% (w/v) BSA, and 0.002% Triton X-100). Inhibition of ULK2 was measured by adding serial diluted test compound (final assay concentration of 1% DMSO). A decrease in absorption at 340 nm was monitored continuously for 6 hours at 30° C. on a multi-mode microplate reader (BioTek). The reaction rate was calculated using the 2-3 h time frame. The reaction rate at each concentration of compound was converted to percent inhibition using controls (i.e. reaction with no test compound and reaction with a known inhibitor) and IC50 values were calculated by fitting a four-parameter sigmoidal curve to the data using Prism (GraphPad software).
# [2] = test system: ULK kinase substrate ATG13 (phospho-Serine 318 ATG13) in A549 cells; experiment: pATG13 ELISA in mutant KRas A549 cells in combination with trametinib; assay type: cell-based; conditions: A549 (KRAS mutant) human lung cancer cells, with 250 nM trametinib, overnight
# Experimental: (§2) A549 (KRAS mutant) human lung cancer cells (6,000 cells/well) were added to a 384-well tissue-culture treated plate in 50 μL of pre-warmed DMEM medium supplemented with 10% characterized fetal bovine serum (Invitrogen, Carlsbad, Calif.), 100 units/mL penicillin G, and 100 μg/mL streptomycin and allowed to grow overnight at 37° C., 5% CO2, and 95% humidity. The following day, 10 μL of media containing trametinib or DMSO as a control was added to wells. The final concentration of trametinib in wells was 250 nM. A dose response of a test compound (0.6 μL per well) was added. DMSO (0.6 μL) was added to control wells. The plate was briefly shaken to mix wells and then incubated at 37° C. overnight. The next day, the media was aspirated and cells were washed with Dulbecco's Phosphate Buffered Saline (Gibco). Cells were lysed using MPER lysis buffer (Pierce, Rockford, Ill.) containing Halt Phosphatase and Protease Inhibitors (Pierce, Rockford, Ill.) and Phosphatase inhibitor cocktail 2 (Sigma, St. Louis, Mo.) at 4° C. for 10 minutes with shaking.
# (§3) Cellular levels of phospho-Serine 318 ATG13 (pATG13) were measured via an ELISA method. Total ATG13 Antibody (Cell Signaling Cat #13273) was used to coat the wells. The plate was incubated at 4° C. overnight and washed with ELISA wash buffer (Biolegend Cat #421601). The wells were then blocked with assay diluent (Biolegend Cat #421203) for 1 hour at room temperature. Plate wells were washed with ELISA wash buffer. Cell lysate was added to wells and incubated at room temperature for 2 hours. Plate wells were washed with ELISA wash buffer. Biotinylated pS318-ATG13 antibody (Rockland Immunochemicals Cat #600-401-C49) was diluted in assay diluent and added to each well and incubated at room temperature for 1 hour. Plate wells were washed with ELISA wash buffer. Streptavidin linked to horseradish peroxidase (Thermo Fisher Cat #21140) was diluted in assay diluent and added to each well and incubated at room temperature for 1 hour. Plate wells were washed with ELISA wash buffer. High sensitivity TMB substrate (Biolegend Cat #421101) was added to each well and incubated at room temperature for 20 minutes. The reaction was stopped with 2N Sulfuric Acid. The plate was analyzed at on a plate reader measuring absorbance at 450 nm and 540 nm (background). Signal was calculated by first subtracting the background absorbance at 540 nm from the absorbance at 450 nm for each well. Next, the background corrected absorbance at 450 nm from blank wells was subtracted from test wells. Data was compared to control wells to determine % ATG13 phosphorylation. GraphPad Prism was used to calculate IC50 values.
# [3] = target: T2, ULK1 kinase (Homo sapiens, UniProt O75385); experiment: Biochemical assay for ULK1.2 (coupled pyruvate kinase/lactate dehydrogenase assay); conditions: 19 nM ULK1 (residues 1-314), myelin basic protein substrate, 1 mM ATP
# T2 construct: purchased Eurofins 14-959
# T2 sequence (O75385 with tags, fused parts or gaps): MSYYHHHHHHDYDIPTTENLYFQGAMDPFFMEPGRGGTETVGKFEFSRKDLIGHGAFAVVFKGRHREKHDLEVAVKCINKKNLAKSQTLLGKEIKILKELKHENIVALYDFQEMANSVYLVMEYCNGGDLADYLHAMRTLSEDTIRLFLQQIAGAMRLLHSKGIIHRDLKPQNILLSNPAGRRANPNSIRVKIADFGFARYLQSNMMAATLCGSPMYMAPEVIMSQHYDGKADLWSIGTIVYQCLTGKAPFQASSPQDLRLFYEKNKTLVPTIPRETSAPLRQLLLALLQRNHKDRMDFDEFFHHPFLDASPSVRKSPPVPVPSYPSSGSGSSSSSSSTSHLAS
# Experimental: as §1, with “ULK1” for “ULK2”, “19” for “9.7”, “#14-959),” for “#14-772),”
# [4] = test system: ULK kinase substrate ATG13 (phospho-Serine 318 ATG13) in MiaPaCa-2 cells; experiment: pATG13 ELISA in mutant KRas MiaPaCa-2 cells in combination with trametinib; assay type: cell-based; conditions: MiaPaCa-2 human pancreatic cancer cells, with 250 nM trametinib, overnight
# Experimental: as §2, with “MiaPaCa-2” for “A549 (KRAS mutant)”, “pancreatic” for “lung”, “(10000” for “(6,000”, “G,” for “G, and”, “streptomycin, and 2.5% Horse Serum” for “streptomycin”
# as §3
# [5] = target: T3, ULK1 kinase (Homo sapiens, UniProt O75385, E37A/K38A); experiment: Biochemical assay for ULK1.3 (coupled pyruvate kinase/lactate dehydrogenase assay); conditions: 0.1 nM ULK1 (residues 1-283), peptide substrate, 1 mM ATP
# T3 construct: (residues 1-283; ID NO: 2); purchased Beryllium
# T3 sequence (O75385 1-283 E37A/K38A): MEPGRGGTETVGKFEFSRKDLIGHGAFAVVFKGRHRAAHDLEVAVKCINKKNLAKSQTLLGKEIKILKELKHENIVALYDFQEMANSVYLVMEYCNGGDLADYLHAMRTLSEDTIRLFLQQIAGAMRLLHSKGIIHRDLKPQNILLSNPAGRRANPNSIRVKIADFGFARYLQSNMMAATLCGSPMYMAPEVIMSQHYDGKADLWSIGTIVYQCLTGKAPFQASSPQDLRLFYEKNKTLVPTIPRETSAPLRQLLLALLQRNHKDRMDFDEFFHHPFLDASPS
# Experimental: Activity of ULK1 kinase was determined spectroscopically using a coupled pyruvate kinase/lactate dehydrogenase assay that continuously monitors the ATP hydrolysis-dependent oxidation of NADH (e.g., Schindler et al. Science (2000) 289: 1938-1942). Assays were conducted in 384-well plates (100 uL final volume) using 0.1 nM ULK1 (from Beryllium), 0.075 mM peptide substrate (YANWLAASIYLDGKKK (SEQ ID NO: 5)), 1.5 units pyruvate kinase, 2.1 units lactate dehydrogenase, 1 mM phosphoenol pyruvate, 0.28 mM NADH and 1 mM ATP in assay buffer (100 mM Tris, pH 7.5, 15 mM MgCl2, 0.5 mM DTT, 0.004% (w/v) BSA, and 0.004% Triton X-100). Inhibition of ULK1 was measured by adding serial diluted test compound (final assay concentration of 1% DMSO). A decrease in absorption at 340 nm was monitored continuously for 6 hours at 30° C. on a multi-mode microplate reader (BioTek). The reaction rate was calculated using the 2-3 h time frame. The reaction rate at each concentration of compound was converted to percent inhibition using controls (i.e. reaction with no test compound and reaction with a known inhibitor) and IC50 values were calculated using software routines in Prism (GraphPad software).
# [6] = target: T4, LRRK2 kinase (Homo sapiens, UniProt Q5S007); experiment: Biochemical assay for LRRK2 (coupled pyruvate kinase/lactate dehydrogenase assay); conditions: 26.4 nM LRRK2 (residues 970-2528), peptide substrate, 1 mM ATP
# T4 construct: (residues 970-2528; ID NO; 4); purchased Thermo Fisher
# Experimental: Activity of LRRK2 kinase was determined spectroscopically using a coupled pyruvate kinase/lactate dehydrogenase assay that continuously monitors the ATP hydrolysis-dependent oxidation of NADH (e.g., Schindler et al. Science (2000) 289: 1938-1942). Assays were conducted in 384-well plates (100 uL final volume) using 26.4 nM LRRK2 (Thermo Fisher), 0.1 mM peptide substrate (RLGRDKYKTLRQIRQ (SEQ ID NO: 6)), 1.5 units pyruvate kinase, 2.1 units lactate dehydrogenase, 1 mM phosphoenol pyruvate, 0.28 mM NADH and 1 mM ATP in assay buffer (100 mM Tris, pH 7.5, 15 mM MgCl2, 0.5 mM DTT, 0.004% (w/v) BSA, and 0.004% Triton X-100). Inhibition of LRRK2 was measured by adding serial diluted test compound (final assay concentration of 1% DMSO). A decrease in absorption at 340 nm was monitored continuously for 6 hours at 30° C. on a multi-mode microplate reader (BioTek). The reaction rate was calculated using the 2-3 h time frame. The reaction rate at each concentration of compound was converted to percent inhibition using controls (i.e. reaction with no test compound and reaction with a known inhibitor) and IC50 values were calculated using software routines in Prism (GraphPad software).
# T1 sequence (Q8IYT8 with tags, fused parts or gaps): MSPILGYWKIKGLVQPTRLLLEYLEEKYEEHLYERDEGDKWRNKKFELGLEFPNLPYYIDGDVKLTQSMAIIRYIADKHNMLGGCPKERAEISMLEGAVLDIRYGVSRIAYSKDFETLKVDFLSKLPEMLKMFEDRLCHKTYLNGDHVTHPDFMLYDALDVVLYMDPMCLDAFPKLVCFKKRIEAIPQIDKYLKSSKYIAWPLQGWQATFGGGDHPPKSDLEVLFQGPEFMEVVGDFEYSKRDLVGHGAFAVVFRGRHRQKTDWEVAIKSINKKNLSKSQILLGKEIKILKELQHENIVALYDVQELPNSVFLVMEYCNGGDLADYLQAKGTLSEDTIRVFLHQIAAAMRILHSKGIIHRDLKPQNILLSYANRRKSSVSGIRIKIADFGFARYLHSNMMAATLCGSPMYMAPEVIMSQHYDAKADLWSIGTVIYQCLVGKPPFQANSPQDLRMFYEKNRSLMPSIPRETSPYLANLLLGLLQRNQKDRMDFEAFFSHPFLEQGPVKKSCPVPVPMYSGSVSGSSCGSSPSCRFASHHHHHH
# T4 sequence (Q5S007 with tags, fused parts or gaps): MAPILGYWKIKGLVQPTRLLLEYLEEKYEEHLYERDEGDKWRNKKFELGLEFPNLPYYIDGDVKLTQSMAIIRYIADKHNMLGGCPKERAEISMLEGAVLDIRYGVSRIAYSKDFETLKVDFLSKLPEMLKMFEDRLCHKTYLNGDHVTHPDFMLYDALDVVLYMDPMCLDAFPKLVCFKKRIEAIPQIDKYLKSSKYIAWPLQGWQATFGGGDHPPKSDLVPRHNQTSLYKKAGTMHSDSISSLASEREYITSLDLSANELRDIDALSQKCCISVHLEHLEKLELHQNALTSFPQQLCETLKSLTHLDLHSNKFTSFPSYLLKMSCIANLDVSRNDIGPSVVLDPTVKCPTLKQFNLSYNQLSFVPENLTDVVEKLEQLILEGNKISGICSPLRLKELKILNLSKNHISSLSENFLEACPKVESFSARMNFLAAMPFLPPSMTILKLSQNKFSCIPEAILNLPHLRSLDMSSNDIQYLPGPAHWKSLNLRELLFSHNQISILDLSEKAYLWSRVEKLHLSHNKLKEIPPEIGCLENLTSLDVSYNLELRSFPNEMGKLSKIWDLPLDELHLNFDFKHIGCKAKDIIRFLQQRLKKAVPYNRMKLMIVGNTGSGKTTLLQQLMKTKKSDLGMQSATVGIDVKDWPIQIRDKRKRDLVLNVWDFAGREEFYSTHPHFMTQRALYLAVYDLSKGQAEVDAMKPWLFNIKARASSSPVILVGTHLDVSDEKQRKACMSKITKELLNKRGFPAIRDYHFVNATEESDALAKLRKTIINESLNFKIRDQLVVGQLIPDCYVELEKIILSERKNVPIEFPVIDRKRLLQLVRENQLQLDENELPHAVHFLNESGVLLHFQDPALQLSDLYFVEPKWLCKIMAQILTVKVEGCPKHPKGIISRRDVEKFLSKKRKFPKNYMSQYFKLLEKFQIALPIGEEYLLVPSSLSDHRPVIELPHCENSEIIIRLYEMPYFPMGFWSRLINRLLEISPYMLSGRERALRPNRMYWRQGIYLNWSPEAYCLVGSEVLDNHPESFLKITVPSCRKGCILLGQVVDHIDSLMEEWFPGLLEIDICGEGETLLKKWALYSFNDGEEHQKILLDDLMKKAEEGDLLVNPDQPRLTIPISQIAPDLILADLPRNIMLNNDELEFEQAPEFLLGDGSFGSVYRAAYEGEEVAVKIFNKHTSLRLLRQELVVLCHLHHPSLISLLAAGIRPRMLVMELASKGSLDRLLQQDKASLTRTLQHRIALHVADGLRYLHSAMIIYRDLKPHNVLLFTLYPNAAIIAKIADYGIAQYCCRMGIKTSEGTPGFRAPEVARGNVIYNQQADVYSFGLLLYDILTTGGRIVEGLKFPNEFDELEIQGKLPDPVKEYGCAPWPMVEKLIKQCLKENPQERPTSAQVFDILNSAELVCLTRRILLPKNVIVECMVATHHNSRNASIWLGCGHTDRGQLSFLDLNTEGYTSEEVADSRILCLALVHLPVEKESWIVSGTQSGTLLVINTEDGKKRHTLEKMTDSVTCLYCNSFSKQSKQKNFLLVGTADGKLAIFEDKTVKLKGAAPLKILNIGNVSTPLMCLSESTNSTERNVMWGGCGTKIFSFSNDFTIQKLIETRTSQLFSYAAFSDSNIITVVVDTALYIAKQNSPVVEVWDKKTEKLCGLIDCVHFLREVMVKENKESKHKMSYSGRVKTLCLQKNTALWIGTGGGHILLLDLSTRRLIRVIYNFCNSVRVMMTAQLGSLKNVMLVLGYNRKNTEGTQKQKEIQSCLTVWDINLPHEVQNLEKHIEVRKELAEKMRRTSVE
compound,measurement,setting,value
"CCc1cc(N2CCN(C)CC2)ccc1Nc1ncc(C(F)(F)F)c(NCCCNC(=O)C2CCC2)n1 [Example 1, N-(3-((2-((2-ethyl-4-(4-methylpiperazin-1-yl)phenyl)amino)-5-(trifluoromethyl)pyrimidin-4-yl)amino)propyl)cyclobutanecarboxamide]",IC50,[1],25 to 100 nM
same,IC50,[2],100 to 300 nM
same,IC50,[3],1 to 25 nM
same,IC50,[4],10 to 100 nM
CCc1cc(N2CCN(C)CC2)ccc1Nc1ncc(Br)c(NCCCNC(=O)C2CCC2)n1 [Example 7],IC50,[5],25 to 100 nM
same,IC50,[1],100 to 500 nM
same,IC50,[6],100 to 300 nM
CN1CCN(c2ccc(Nc3ncc(Br)c(NCCCNC(=O)C4CCC4)n3)c(C3CC3)c2)CC1 [Example 9],IC50,[5],25 to 100 nM
same,IC50,[1],100 to 500 nM
same,IC50,[6],100 to 300 nM
CC(C)Oc1cc(N2CCN(C)CC2)ccc1Nc1ncc(Cl)c(NCCCNC(=O)C2CCC2)n1 [Example 10],IC50,[5],500 to 20000 nM
same,IC50,[1],500 to 20000 nM
same,IC50,[6],100 to 300 nM
CCc1cc(N2CCN(C)CC2)ccc1Nc1ncc(C2CC2)c(NCCCNC(=O)C2CCC2)n1 [Example 19],IC50,[5],500 to 20000 nM
same,IC50,[1],500 to 20000 nM
same,IC50,[6],600 to 20000 nM
"Cc1nn(C(C)(C)C(N)=O)cc1Nc1ncc(C(F)(F)F)c(NCCCNC(=O)C2CCC2)n1 [Example 26, N-(3-((2-((1-(1-amino-2-methyl-1-oxopropan-2-yl)-3-methyl-1H-pyrazol-4-yl)amino)-5-(trifluoromethyl)pyrimidin-4-yl)amino)propyl)cyclobutanecarboxamide]",IC50,[5],500 to 20000 nM
same,IC50,[1],500 to 20000 nM
same,IC50,[6],1 to 100 nM
"Cc1nn(C(C)(C)C#N)cc1Nc1ncc(C(F)(F)F)c(NCCCNC(=O)C2CCC2)n1 [Example 30, N-(3-((2-((1-(2-cyanopropan-2-yl)-3-methyl-1H-pyrazol-4-yl)amino)-5-(trifluoromethyl)pyrimidin-4-yl)amino)propyl)cyclobutanecarboxamide]",IC50,[5],100 to 500 nM
same,IC50,[1],500 to 20000 nM
same,IC50,[6],1 to 100 nM
